Source: patent publication US20060276464A1, “Diarylsulfone sulfonamides and use thereof” (Wyeth, priority 2005, published 2006)
Several values for one entry are separate records, joined by “and”; a condition that tells them apart may be missing. Identical values can stand only once. Like-named read-outs stand apart in the source and are kept apart here.

What was measured:
SFRP-1 [1] = target: T1, SFRP-1 (Homo sapiens, UniProt Q8N474); assay: Fluorescence polarization binding assay (competitive displacement of a probe compound from SFRP-1); conditions: fluorescence anisotropy, 45 nM SFRP-1, 20 nM probe;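 further: test compound competes with a fluorescent probe held by SFRP-1, seen as a drop in probe anisotropy after incubation in darkness, with anisotropy as function of rising compound dose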
T1 sequence (Q8N474 32-314): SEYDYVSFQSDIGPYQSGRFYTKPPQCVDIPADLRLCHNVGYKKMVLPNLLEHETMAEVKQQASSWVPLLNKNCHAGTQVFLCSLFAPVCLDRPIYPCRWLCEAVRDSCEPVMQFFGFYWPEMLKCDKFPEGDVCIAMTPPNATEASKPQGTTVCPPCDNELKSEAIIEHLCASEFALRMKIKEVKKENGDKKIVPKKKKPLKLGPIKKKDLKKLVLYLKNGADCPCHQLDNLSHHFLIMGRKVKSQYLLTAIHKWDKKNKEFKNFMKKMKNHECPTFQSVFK

SFRP-1 [2] = target: T1, SFRP-1; assay: Cell-based assay for in vitro measurement of SFRP-1/SARP2 antagonist activity (U2OS cells co-transfected with 16x TCF-tk-Luciferase reporter, Wnt and hSFRP-1); conditions: U2OS;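 further: U2OS cells co-transfected with a TCF-tk luciferase reporter, a Wnt vector, hSFRP-1 or empty vector and CMV-βgal, luciferase luminescence read in cell lysates alongside βgal activity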
[3] = read-out: Fold Induction with SFRP-1, Conc 15 μM, with SFRP-1, fold induction over SFRP-1 control, single dose
[4] = read-out: Fold Induction without SFRP-1, Conc 15 μM, without SFRP-1, single dose

Row | Compound | IC50 (SFRP-1 [1]) | fold induction at 15 µM (SFRP-1 [2]; [3]) | fold induction at 15 µM (SFRP-1 [2]; [4])
1 | CC(C)c1ccc(S(=O)(=O)c2ccc(F)cc2)cc1S(=O)(=O)NCCC1CCOCC1 [Example 322, 5-[(4-fluorophenyl)sulfonyl]-2-isopropyl-N-(2-tetrahydro-2H-pyran-4-ylethyl)benzenesulfonamide] | 600 nM | 2.5 | 1.1
2 | Cc1cc(C)c(S(=O)(=O)c2ccccc2)cc1S(=O)(=O)NCCC1CCOCC1 [Example 328, 2,4-dimethyl-5-(phenylsulfonyl)-N-(2-tetrahydro-2H-pyran-4-ylethyl)benzenesulfonamide] | 3000 nM | 2.6 | 1.1
3 | Cc1ccc(S(=O)(=O)c2cc(Cl)cc(Cl)c2)cc1S(=O)(=O)NCCCn1ccnc1 [Example 344, 5-[(3,5-dichlorophenyl)sulfonyl]-N-[3-(1H-imidazol-1-yl)propyl]-2-methylbenzenesulfonamide] | 1400 nM | 2.2 | 1
4 | Cc1ccc(S(=O)(=O)c2ccc(NCCC#N)cc2)cc1S(=O)(=O)NCCCn1ccnc1 [Example 353, 5-({4-[(2-cyanoethyl)amino]phenyl}sulfonyl)-N-[3-(1H-imidazol-1-yl)propyl]-2-methylbenzenesulfonamide] | 300 nM | 3.3 | 1.1
5 | CC[C@H](C)[C@@H](CO)Nc1ccc(S(=O)(=O)c2ccc(C)c(S(=O)(=O)NCCCn3ccnc3)c2)cc1 [Example 354, 5-[(4-{[(1S,2S)-1-(hydroxymethyl)-2-methylbutyl]amino}phenyl)sulfonyl]-N-[3-(1H-imidazol-1-yl)propyl]-2-methylbenzenesulfonamide] | 1400 nM | 2.6 | 1
6 | CNc1ccc(S(=O)(=O)c2ccc(C)c(S(=O)(=O)NCCc3ccccn3)c2)cc1 [Example 356, 2-methyl-5-{[4-(methylamino)phenyl]sulfonyl)-N-(2-pyridin-2-ylethyl)benzenesulfonamide] | 1700 nM | 2.5 | 1
7 | Cc1ccc(S(=O)(=O)c2cccc(Cl)c2Cl)cc1S(=O)(=O)NCCCn1ccnc1 [Example 360, 5-[(2,3-dichlorophenyl)sulfonyl]-N-[3-(1H-imidazol-1-yl)propyl]-2-methylbenzenesulfonamide] | 2000 nM | 1.9 | 0.9
8 | Cc1ccc(S(=O)(=O)c2ccc(NCC3CC3)cc2)cc1S(=O)(=O)NCCCn1ccnc1 [Example 368, 5-({4-[(cyclopropylmethyl)amino]phenyl}sulfonyl)-N-[3-(1H-imidazol-1-yl)propyl]-2-methylbenzenesulfonamide] | 900 nM | 2.5 | 1
9 | Cc1ccc(S(=O)(=O)c2ccc(NCc3ccccc3)cc2)cc1S(=O)(=O)NCCCn1ccnc1 [Example 370, 5-{[4-(benzylamino)phenyl]sulfonyl}-N-[3-(1H-imidazol-1-yl)propyl]-2-methylbenzenesulfonamide] | 500 nM | 1.8 | 0.8
10 | Cc1ccc(S(=O)(=O)c2ccc(N[C@H](C)C3CCCCC3)cc2)cc1S(=O)(=O)NCCCn1ccnc1 [Example 372, 5-[(4-{[(1R)-1-cyclohexylethyl]amino}phenyl)sulfonyl]-N-[3-(1H-imidazol-1-yl)propyl]-2-methylbenzenesulfonamide] | 2000 nM and 2100 nM | 2.2 | 0.9
11 | CCC(O)CNc1ccc(S(=O)(=O)c2ccc(C)c(S(=O)(=O)NCCCn3ccnc3)c2)cc1 (stereo not drawn) [Example 373, 5-({4-[(2-hydroxybutyl)amino]phenyl}sulfonyl)-N-[3-(1H-imidazol-1-yl)propyl]-2-methylbenzenesulfonamide] | 1100 nM | 2.8 | 1
12 | Cc1ccc(S(=O)(=O)c2ccc(Br)cc2)cc1S(=O)(=O)NCCc1ccccn1 [Example 381, 5-[(4-bromophenyl)sulfonyl]-2-methyl-N-(2-pyridin-2-ylethyl)benzenesulfonamide] | 4000 nM | 2.1 | 0.8
13 | CCc1ccc(S(=O)(=O)c2ccc(F)cc2)cc1S(=O)(=O)NC(C)C(O)c1ccccc1 (stereo not drawn) [Example 392, 2-ethyl-5-[(4-fluorophenyl)sulfonyl]-N-[(trans)-2-hydroxy-1-methyl-2-phenylethyl]benzenesulfonamide] | 4000 nM | 2.8 | 1
14 | Cc1ccc(S(=O)(=O)c2ccccc2)cc1S(=O)(=O)NC1CCN(Cc2ccccc2)CC1 [Example 413, N-(1-benzylpiperidin-4-yl)-2-methyl-5-(phenylsulfonyl)benzenesulfonamide] | 5000 nM | 2.2 | 1.4
15 | CCOc1ccccc1S(=O)(=O)c1ccc(C)c(S(=O)(=O)NCCc2ccccn2)c1 [Example 420, 5-[(2-ethoxyphenyl)sulfonyl]-2-methyl-N-(2-pyridin-2-ylethyl)benzenesulfonamide] | 8000 nM | 2.4 | 1.3
16 | COc1cccc(S(=O)(=O)c2ccc(C)c(S(=O)(=O)NCCc3ccccn3)c2)c1OC [Example 422, 5-[(2,3-dimethoxyphenyl)sulfonyl]-2-methyl-N-(2-pyridin-2-ylethyl)benzenesulfonamide] | 2800 nM | 1.9 | 1.2

Further lines, results first:

Row | IC50 (SFRP-1 [1]) | fold induction at 15 µM (SFRP-1 [2]; [3]) | fold induction at 15 µM (SFRP-1 [2]; [4]) | Compound
17 | 900 nM | 3.2 | 0.9 | Cc1cc(C)c(S(=O)(=O)c2ccccc2)cc1S(=O)(=O)NCCn1ccnc1 [Example 324, N-[2-(1H-imidazol-1-yl)ethyl]-2,4-dimethyl-5-(phenylsulfonyl)benzenesulfonamide]
18 | 1000 nM | 2.9 | 0.9 | Cc1cc(C)c(S(=O)(=O)c2ccc(F)cc2)cc1S(=O)(=O)NCCn1ccnc1 [Example 329, 5-[(4-fluorophenyl)sulfonyl]-N-[2-(1H-imidazol-1-yl)ethyl]-2,4-dimethylbenzenesulfonamide]
19 | 300 nM | 4.2 | 1.1 | CNc1ccc(S(=O)(=O)c2ccc(C(C)C)c(S(=O)(=O)NCCc3ccccn3)c2)cc1 [Example 357, 2-isopropyl-5-{[4-(methylamino)phenyl]sulfonyl}-N-(2-pyridin-2-ylethyl)benzenesulfonamide]
20 | 600 nM | 2.9 | 1 | CNc1ccc(S(=O)(=O)c2ccc(C(C)C)c(S(=O)(=O)NC3CCOCC3)c2)cc1 [Example 358, 2-isopropyl-5-{[4-(methylamino)phenyl]sulfonyl}-N-(tetrahydro-2H-pyran-4-yl)benzenesulfonamide]
21 | 800 nM | 2.7 | 0.9 | CNc1ccc(S(=O)(=O)c2ccc(C(C)C)c(S(=O)(=O)NCCC3CCOCC3)c2)cc1 [Example 359, 2-isopropyl-5-{[4-(methylamino)phenyl]sulfonyl}-N-[2-(tetrahydro-2H-pyran-4-yl)ethyl]benzenesulfonamide]
22 | 7000 nM | 1.4 | 0.8 | Cc1ccc(S(=O)(=O)c2ccc(N[C@@H](C)C3CCCCC3)cc2)cc1S(=O)(=O)NCCCn1ccnc1 [Example 371, 5-[(4-{[(1S)-1-cyclohexylethyl]amino}phenyl)sulfonyl]-N-[3-(1H-imidazol-1-yl)propyl]-2-methylbenzenesulfonamide]
23 | 9000 nM | 2.6 | 1.2 | Cc1ccc(S(=O)(=O)c2ccccc2)cc1S(=O)(=O)NC1CCC1 [Example 398, N-cyclobutyl-2-methyl-5-(phenylsulfonyl)benzenesulfonamide]
24 | 3000 nM | 2.5 | 1.1 | Cc1ccc(S(=O)(=O)c2ccccc2)cc1S(=O)(=O)NC1CCCC1 [Example 399, N-cyclopentyl-2-methyl-5-(phenylsulfonyl)benzenesulfonamide]
25 | 2600 nM | 2.5 | 1.1 | C/C(=N\O)c1ccc(S(=O)(=O)c2ccc(C)c(S(=O)(=O)NC3CCOCC3)c2)cc1 [Example 402, 5-({4-[(1E)-N-hydroxyethanimidoyl]phenyl}sulfonyl)-2-methyl-N-(tetrahydro-2H-pyran-4-yl)benzenesulfonamide]
26 | 1300 nM | 2.3 | 1.2 | CCc1ccc(S(=O)(=O)c2ccc(C)c(S(=O)(=O)NCCc3ccccn3)c2)cc1 [Example 418, 5-[(4-ethylphenyl)sulfonyl]-2-methyl-N-(2-pyridin-2-ylethyl)benzenesulfonamide]
27 | 9000 nM | 2.2 | 1.2 | COc1ccc(OC)c(S(=O)(=O)c2ccc(C)c(S(=O)(=O)NCCc3ccccn3)c2)c1 [Example 421, 5-[(2,5-dimethoxyphenyl)sulfonyl]-2-methyl-N-(2-pyridin-2-ylethyl)benzenesulfonamide]
28 | 10000 nM | 2.4 | 1.1 | COc1ccc(S(=O)(=O)c2ccc(C)c(S(=O)(=O)NCCc3ccccn3)c2)c(OC)c1 [Example 423, 5-[(2,4-dimethoxyphenyl)sulfonyl]-2-methyl-N-(2-pyridin-2-ylethyl)benzenesulfonamide]
